Measured values reported in ChEMBL document CHEMBL1129595, “Potent 6-desfluoro-8-methylquinolones as new lead compounds in antibacterial chemotherapy” (J Med Chem, 1996).
≈ marks a conversion by molar mass, not a printed value.

Experiments:
[1] = tested on: Enterobacter cloacae; test: In vitro antibacterial activity against Enterobacter cloacae OMNFI 174; format: functional
[2] = tested on: Escherichia coli; test: In vitro antibacterial activity against Escherichia coli ATCC 25922; format: functional
[3] = tested on: Pseudomonas aeruginosa; test: In vitro antibacterial activity against Pseudomonas aeruginosa […] 9027; format: functional
[4] = tested on: Klebsiella pneumoniae; test: In vitro antibacterial activity against Klebsiella pneumoniae ATCC 10031; format: functional
[5] = tested on: Enterococcus faecalis; test: In vitro antibacterial activity against Enterococcus faecalis UCMC 39690; format: functional
[6] = tested on: Streptococcus pyogenes; test: In vitro antibacterial activity against Streptococcus pyogenes OMNFI BI; format: functional
[7] = tested on: Proteus mirabilis; test: In vitro antibacterial activity against Proteus mirabilis OBT 505; format: functional
[8] = tested on: Escherichia coli; test: In vitro antibacterial activity against Escherichia coliCPX-R OBT 431; format: functional
[9] = tested on: Proteus vulgaris; test: In vitro antibacterial activity against Proteus vulgaris CNUR 6; format: functional
[10] = tested on: Staphylococcus aureus; test: In vitro antibacterial activity against Staphylococcus aureus CPX-R OBT 687; format: functional
[11] = tested on: Streptococcus pneumoniae; test: In vitro antibacterial activity against Streptococcus pneumoniae I 0.43; format: functional
[12] = tested on: Staphylococcus aureus; test: In vitro antibacterial activity against Staphylococcus aureus ATCC 29213; format: functional
[13] = tested on: Staphylococcus aureus; test: In vitro antibacterial activity against Staphylococcus aureus MPR 5; format: functional
[14] = tested on: Enterococcus faecalis; test: In vitro antibacterial activity against Enterococcus faecalis LEP Br; format: functional
[15] = tested on: Staphylococcus aureus; test: In vitro antibacterial activity against Staphylococcus aureus M-R POMM 6214; format: functional
[16] = tested on: Escherichia coli; test: In vitro antibacterial activity against Escherichia coli 120; format: functional
[17] = tested on: Pseudomonas aeruginosa; test: In vitro antibacterial activity against Pseudomonas aeruginosa OBT 307; format: functional
[18] = tested on: Haemophilus influenzae; test: In vitro antibacterial activity against Haemophilus influenzae; format: functional
[19] = target: DNA gyrase (Escherichia coli, UniProt P0AES4+P0AES6); test: Inhibitory effect against Escherichia coli Gyrase in Supercoiling assay; format: protein-complex assay
[20] = Mean MIC against gram positive; format: functional
[21] = Mean MIC against gram negative; format: functional

Row | SMILES | MIC [1] | MIC [2] | MIC [3] | MIC [4] | MIC [5] | MIC [6] | MIC [7] | MIC [8] | MIC [9] | MIC [10] | MIC [11] | MIC [12] | MIC [13] | MIC [14] | MIC [15] | MIC [16] | MIC [17] | MIC [18] | IC50 [19] | MIC [20] | further results
1 | CC(=O)O.Cc1c(N2CC[C@@H](N)C2)ccc2c(=O)c(C(=O)O)cn(C3CC3)c12 | 0.25 µg/mL | 0.03 µg/mL | 0.125 µg/mL | 0.016 µg/mL | 0.25 µg/mL | 0.25 µg/mL | 0.06 µg/mL | 16 µg/mL | 2 µg/mL | 4 µg/mL | 0.25 µg/mL | 0.125 µg/mL | 0.125 µg/mL | 0.5 µg/mL | 0.25 µg/mL | 0.016 µg/mL | 0.5 µg/mL | 0.6 µg/mL | – | – | –
2 | Cc1c(N2CCN(C)CC2)ccc2c(=O)c(C(=O)O)cn(C3CC3)c12 | 0.25 µg/mL (≈ 0.732 µM) | 0.06 µg/mL (≈ 0.176 µM) | 2 µg/mL (≈ 5.86 µM) | < 0.016 µg/mL | 1 µg/mL (≈ 2.93 µM) | 2 µg/mL (≈ 5.86 µM) | 2 µg/mL (≈ 5.86 µM) | > 16 µg/mL | 8 µg/mL (≈ 23.4 µM) | 8 µg/mL (≈ 23.4 µM) | 2 µg/mL (≈ 5.86 µM) | 0.25 µg/mL (≈ 0.732 µM) | 0.25 µg/mL (≈ 0.732 µM) | 2 µg/mL (≈ 5.86 µM) | 0.5 µg/mL (≈ 1.46 µM) | 0.06 µg/mL (≈ 0.176 µM) | 16 µg/mL (≈ 46.9 µM) | 0.06 µg/mL (≈ 0.176 µM) | 83.5 µM | 1.09 µg/mL (≈ 3.19 µM) | Mean MIC [20]: 0.609 µg/mL
3 | Cc1c(N2CCN(C)CC2)c(F)cc2c(=O)c(C(=O)O)cn(C3CC3)c12 | 0.125 µg/mL (≈ 0.348 µM) | < 0.016 µg/mL | 0.5 µg/mL (≈ 1.39 µM) | < 0.016 µg/mL | 0.271 µg/mL (≈ 0.754 µM) | 0.25 µg/mL (≈ 0.696 µM) | 0.5 µg/mL (≈ 1.39 µM) | 4 µg/mL (≈ 11.1 µM) | 0.5 µg/mL (≈ 1.39 µM) | 2 µg/mL (≈ 5.56 µM) | 1 µg/mL (≈ 2.78 µM) | 0.125 µg/mL (≈ 0.348 µM) | 0.06 µg/mL (≈ 0.167 µM) | 0.25 µg/mL (≈ 0.696 µM) | 0.125 µg/mL (≈ 0.348 µM) | < 0.016 µg/mL | 0.2 µg/mL (≈ 0.556 µM) | < 0.016 µg/mL | 16.4 µM | 0.271 µg/mL (≈ 0.754 µM) | MIC [21]: 0.155 µg/mL (≈ 0.431 µM)
4 | Cc1c(N2CCC(N)C2)ccc2c(=O)c(C(=O)O)cn(C3CC3)c12 (stereo unspecified) | < 0.016 µg/mL | < 0.016 µg/mL | 0.125 µg/mL (≈ 0.382 µM) | < 0.016 µg/mL | 0.5 µg/mL (≈ 1.53 µM) | 1 µg/mL (≈ 3.05 µM) | 0.5 µg/mL (≈ 1.53 µM) | 16 µg/mL (≈ 48.9 µM) | 1 µg/mL (≈ 3.05 µM) | 4 µg/mL (≈ 12.2 µM) | 0.06 µg/mL (≈ 0.183 µM) | 0.125 µg/mL (≈ 0.382 µM) | 0.125 µg/mL (≈ 0.382 µM) | 1 µg/mL (≈ 3.05 µM) | 0.25 µg/mL (≈ 0.764 µM) | < 0.016 µg/mL | 1 µg/mL (≈ 3.05 µM) | < 0.016 µg/mL | – | – | –
5 | Cc1c(N2CC(C)CC(C)C2)ccc2c(=O)c(C(=O)O)cn(C3CC3)c12 (stereo unspecified) | 4 µg/mL (≈ 11.3 µM) | 1 µg/mL (≈ 2.82 µM) | 8 µg/mL (≈ 22.6 µM) | 0.5 µg/mL (≈ 1.41 µM) | 1 µg/mL (≈ 2.82 µM) | 2 µg/mL (≈ 5.64 µM) | 16 µg/mL (≈ 45.1 µM) | > 16 µg/mL | > 16 µg/mL | 4 µg/mL (≈ 11.3 µM) | 0.5 µg/mL (≈ 1.41 µM) | < 0.016 µg/mL | < 0.016 µg/mL | 1 µg/mL (≈ 2.82 µM) | < 0.016 µg/mL | 1 µg/mL (≈ 2.82 µM) | > 16 µg/mL | 0.25 µg/mL (≈ 0.705 µM) | – | – | –
6 | Cc1c(N2CCCC(CO)C2)ccc2c(=O)c(C(=O)O)cn(C3CC3)c12 (stereo unspecified) | 0.5 µg/mL (≈ 1.4 µM) | 0.125 µg/mL (≈ 0.351 µM) | 4 µg/mL (≈ 11.2 µM) | 0.06 µg/mL (≈ 0.168 µM) | 0.25 µg/mL (≈ 0.701 µM) | 0.5 µg/mL (≈ 1.4 µM) | 4 µg/mL (≈ 11.2 µM) | 16 µg/mL (≈ 44.9 µM) | 8 µg/mL (≈ 22.4 µM) | 1 µg/mL (≈ 2.81 µM) | 0.5 µg/mL (≈ 1.4 µM) | < 0.016 µg/mL | < 0.016 µg/mL | 0.5 µg/mL (≈ 1.4 µM) | < 0.016 µg/mL | 0.25 µg/mL (≈ 0.701 µM) | 16 µg/mL (≈ 44.9 µM) | < 0.016 µg/mL | – | – | –
7 | CN1CCN(c2cc3c(cc2F)c(=O)c(C(=O)O)cn3C2CC2)CC1 | < 0.016 µg/mL | < 0.016 µg/mL | 0.5 µg/mL (≈ 1.45 µM) | < 0.016 µg/mL | 0.25 µg/mL (≈ 0.724 µM) | 2 µg/mL (≈ 5.79 µM) | 0.25 µg/mL (≈ 0.724 µM) | > 16 µg/mL | 0.5 µg/mL (≈ 1.45 µM) | 16 µg/mL (≈ 46.3 µM) | 0.5 µg/mL (≈ 1.45 µM) | 0.125 µg/mL (≈ 0.362 µM) | 0.125 µg/mL (≈ 0.362 µM) | 0.5 µg/mL (≈ 1.45 µM) | 1 µg/mL (≈ 2.9 µM) | < 0.016 µg/mL | 0.25 µg/mL (≈ 0.724 µM) | < 0.016 µg/mL | 4.34 µM | 0.648 µg/mL (≈ 1.88 µM) | MIC [21]: 0.11 µg/mL (≈ 0.318 µM)
8 | Cc1c(N2CCNCC2)ccc2c(=O)c(C(=O)O)cn(C3CC3)c12.Cl | 0.26 µg/mL | 0.03 µg/mL | 0.125 µg/mL | < 0.016 µg/mL | 2 µg/mL | 2 µg/mL | 0.25 µg/mL | > 16 µg/mL | 2 µg/mL | 16 µg/mL | 2 µg/mL | 0.5 µg/mL | 0.25 µg/mL | 2 µg/mL | 0.5 µg/mL | 0.03 µg/mL | 2 µg/mL | 0.03 µg/mL | – | – | –
9 | O=C(O)c1cn(C2CC2)c2cc(N3CCNCC3)c(F)cc2c1=O [CIPROFLOXACIN] | – | < 0.016 µg/mL | 0.06 µg/mL (≈ 0.181 µM) | < 0.016 µg/mL | 0.5 µg/mL (≈ 1.51 µM) | 0.5 µg/mL (≈ 1.51 µM) | 0.06 µg/mL (≈ 0.181 µM) | – | 0.5 µg/mL (≈ 1.51 µM) | > 16 µg/mL | 1 µg/mL (≈ 3.02 µM) | 0.5 µg/mL (≈ 1.51 µM) | 0.25 µg/mL (≈ 0.754 µM) | 1 µg/mL (≈ 3.02 µM) | 1 µg/mL (≈ 3.02 µM) | < 0.016 µg/mL | 1 µg/mL (≈ 3.02 µM) | < 0.016 µg/mL | – | 0.917 µg/mL (≈ 2.77 µM) | MIC [21]: 0.083 µg/mL (≈ 0.25 µM)
